Experimental data from paper PMC12584615, “Degradation of 2,4-D by plant growth-promoting Cupriavidus sp. DSPFs: role in mitigating herbicide toxicity in soil and enhancing crop production” (Microbiology Spectrum, 2025).
Values belong to the compound of their own block, whether it stands above or below them.

Legend:
[1] = target: T1, 2,4-dichlorophenol-6-monooxygenase (24DCPM); assay: spectrophotometric NAD(P)H consumption at […] nm, uncompetitive substrate inhibition fit; assay type: biochemical, Cupriavidus sp. DSPFs; settings: substrate inhibition constant; 200 µM NADH; phosphate buffer 50 mM pH 7.5; 6.25 µM FAD
T1 construct: gene tfdB; homotetramer ~255 kDa, subunit ~65 kDa

[2] = test system: T1, 2,4-dichlorophenol-6-monooxygenase (24DCPM); assay: as above; assay type: biochemical, Cupriavidus sp. DSPFs; settings: 200 µM NADH; phosphate buffer 50 mM pH 7.5; 6.25 µM FAD; read-out: Km (μM) / I^a
[3] = test system: T1, 2,4-dichlorophenol-6-monooxygenase (24DCPM); assay: spectrophotometric NAD(P)H consumption at […] nm, Michaelis-Menten fit; assay type: biochemical, Cupriavidus sp. DSPFs; settings: 50 µM 2,4-dichlorophenol; phosphate buffer 50 mM pH 7.5; 6.25 µM FAD; read-out: Km (μM) / I^a
[4] = target: 2,4-dichlorophenol-6-monooxygenase from Cupriavidus sp. strain DSPFs (Cupriavidus sp. strain DSPFs); assay: SEC; ENrich SEC 650 column (24 mL) in 50 mM potassium phosphate buffer pH 7.5, 4°C; calibrated with mass markers from 12.4 to 669 kDa; native mass from log(mol mass) versus Ve/V0, compared with the subunit mass from SDS-PAGE

Compound: Oc1ccc(Cl)cc1Cl [2,4-DCP, 2,4-dichlorophenol]
Ki (μM) / I [1]: 374 ± 80 µM
Km [2]: 3.1 ± 0.8 µM

Compound: NC(=O)C1=CN([C@@H]2O[C@H](COP(=O)(O)OP(=O)(O)OC[C@H]3O[C@@H](n4cnc5c(N)ncnc54)[C@H](OP(=O)(O)O)[C@@H]3O)[C@@H](O)[C@H]2O)C=CC1 [NADPH]
Km [3]: 46.8 ± 6 µM

stoichiometry N [4]: 4
Compound: 2,4-dichlorophenol-6-monooxygenase from Cupriavidus sp. strain DSPFs (enzyme)

Compound: NC(=O)C1=CN([C@@H]2O[C@H](COP(=O)(O)OP(=O)(O)OC[C@H]3O[C@@H](n4cnc5c(N)ncnc54)[C@H](O)[C@@H]3O)[C@@H](O)[C@H]2O)C=CC1 [NADH]
Km [3]: 205 ± 47 µM
